Where two headings read alike, the source gives them in different places.
Experiments:
[1] = tested on: T84 cells; assay: Electrogenic Cl- secretion (short circuit current, Isc) in confluent T84 monolayers; type: cell-based, human
[2] = tested on: basolateral K+ channels; assay: Basolateral K+ conductance in T84 monolayers permeabilized apically with amphotericin B; type: cell-based, human
Description: Selective mebrane Permeabilization and Measurement of Potassium Conductance of the Basolateral Membrane. The basolateral potassium conductance was measured using the technique developed by Dawson and co-workers. A potassium gradient (mucosal to serosal) was first established across the monolayer using asymmetric mucosal and serosal buffers containing K^+ as the sole permeant ion. The addition of amphotericin B (20 μM) to the mucosal reservoir forms conductive pores in the apical membrane, and thus removes all resistance to transepithelial potassium movement across this membrane. Thus, under the conditions of the experiment, in which the monolayer is short circuited (i.e., voltage-clamped at zero potential) and the transepithehal potassium gradient is constant, the amphotericin-dependent Isc becomes a measure of the rate of the transepithelial potassium flux across basolateral membranes. Changes in short circuit current (Isc), then represent changes in basolateral K^+ conductances (gK). Isc and K^+ conductances were measured using calomel electrodes, 3M KCI-agar bridges, and a voltage clamp (University of Iowa, Iowa City). To generate a voltage-current channel relationships, currents were elicited by 1 sec test potentials from −80 to +80 in 10 mV increments in the asymmetrical high K^+ gluconate solution.
Calculation of Basolateral Membrane K^+ Permeability: Membrane Permeabilities were Calculated According to the Formula:
^PK=(cm/s)=^JK(mM/cm^2·s)/Δ[K^+](mM/cm^3)
where Δ[K^+] is equal to the difference in K^+ concentration (135 mM) between the asymmetric apical and basolateral bathing solutions. Maximal Isc values were converted into K^+ fluxes by dividing by the Faraday constant F (96,500 coulombs/mol) as previously described (Huflejt et al., J. Clin. Invest. 93: 1900-1910 (1994)).
Basolateral K+ transport was examined in T84 monolayers permeabilized apically by pretreatment with amphotericin B. Apical and basolateral buffers contained K+ as the sole permeant ion. All studies were performed with a 135 mM basolaterally directed K+ gradient. This method has been utilized previously to examine both Cl— and K+ transport in T84 cells and HT29-Cl.16E cells. Briefly, ion conductances in the luminal or basolateral membranes of confluent T84 cell monolayers can be assessed separately by selectively permeabilizing the apical or basolateral membrane using the ionophore amphotericin B. This artificially removes all electrical resistance to ion transport across the plasma membrane containing pores formed by amphotericin B. As a result, the intact contralateral plasma membrane becomes rate limiting for transepithelial ion transport. Agonist-dependent changes in ion conductances can be assessed directly either as transepithelial short circuit current (Isc) in the presence of established ion gradients, or as transepithelial conductance (G) in the presence of established transepithelial potentials.

[3] = tested on: basolateral NaK2Cl cotransporters; assay: Bumetanide-sensitive 86Rb uptake in T84 monolayers; settings: 33 μM for 30 min
[4] = tested on: basolateral NaK2Cl cotransporters
[5] = tested on: apical membrane Cl- channels; assay: Apical Cl- conductance in T84 monolayers permeabilized basolaterally with amphotericin B; type: cell-based, human; settings: symmetrical Cl- 142 mM; forskolin 10 μM
[6] = tested on: apical membrane Cl- channels; assay: 125I efflux from T84 monolayers; type: cell-based, human
Description: (§1) After four baseline samples were obtained, the cells were treated (at t=8 minutes) with vasoactive intestinal peptide (VIP, […]) or thapsigargin (5 μM) to stimulate Cl— secretion, and an additional 15 timed samples were obtained. Finally, the cell monolayer was rinsed, cut with its support from the polystyrene ring, and the residual cell-associated radioactivity was determined. Monolayers were maintained at 37° C. in room air throughout the study. ^125I was counted by gamma counting and normalized to percent total uptake as previously described (Venglarik, et al, Am. J. Physiol. (Cell Physiol. 28):C358-C364 (1990).

[7] = tested on: rabbit colonic mucosa; assay: Ussing chamber studies using rabbit colonic mucosa; settings: clotrimazole 30 μM; forskolin 10 μM
Description: 4 male, New Zealand rabbits (2.5 kg) were anesthetized by an intravenous injection of pentobarbital (0.5 ml/kg). A 15 cm length of distal colon was removed and opened longitudinally. […] The volume of fluid on each side of the mucosa was 7 ml.
Potential difference and Isc were monitored continuously and registered every 10 minutes.

[8] = tested on: basolateral K+ channel; assay: 86Rb efflux from T84 monolayers (K+ channel activity); type: cell-based, human
Description: as §1, with “Cl^−” for “Cl—”, “^86Rb” for “^125I”, “scintillation” for “gamma”

[9] = tested on: intestinal fluid secretion induced by cholera toxin; type: in vivo, Balb/C mice
[10] = 33 μM, final 30 minutes of preincubation
[11] = forskolin 10 μM, carbachol 100 μM

[Ba+2].[Cl-].[Cl-] [BaCl2] was tested, and the “Inhibition of Cl- secretory response (Isc) to Ca++-dependent agonist carbachol” value (from here on “Inhibition … to Ca++-dependent agonist carbachol”) [1] was “no apparent affect”, the “Inhibition of Cl- secretory response (Isc) to cAMP mediated agonist VIP” value (“Inhibition … to cAMP mediated agonist VIP” for short) [1] was “strongly inhibited” and the “Effect on K+ transport induced by subsequent addition of carbachol” value ([2]; carbachol 100 μM, same monolayers, BaCl2 3 mM) was “no detectable effect”. The “Inhibition of cAMP-sensitive IK elicited by forskolin” value ([2]; forskolin 10 μM, BaCl2 3 mM basolateral) was “greater than 70%”.

In the case of C[N+](C)(C)CCOC(N)=O [carbachol], the “Carbachol-induced IscK, carbachol added alone” value ([2]; apically permeabilized monolayers) is reported as 111.7±7.4 μA/cm^2 and the “Carbachol-induced IscK, carbachol added after forskolin” value ([2]; apically permeabilized monolayers, forskolin 10 μM) is reported as 180.7±15.7 μA/cm^2.

With CC(=O)N1CCN(c2ccc(OCC3COC(Cn4ccnc4)(c4ccc(Cl)cc4Cl)O3)cc2)CC1 (stereo not shown) [ketoconazole] the “Inhibition of cAMP and Ca++ elicited chloride secretion” value ([1]; T84 cells) was “effective at inhibiting chloride secretion”.

Clc1ccccc1C(c1ccccc1)(c1ccccc1)n1ccnc1 [clotrimazole] was tested, and the IC50 ([1]; Homo sapiens, T84, read-out: IC50 for inhibition of secretory response to E. Coli heat-stabile toxin) was 15 µM, the “Inhibition of cAMP and Ca++ elicited chloride secretion” value ([1]; T84 cells) was “most potent inhibitor tested” and the “Inhibition … to cAMP mediated agonist VIP” value ([1]; T84 cells, VIP 5 nM, BaCl 3 mM, charybdotoxin 100 nM) was “inhibited”. The “Inhibition … to Ca++-dependent agonist carbachol” value ([1]; T84 cells, carbachol 100 mM, BaCl 3 mM, charybdotoxin 100 nM) was “inhibited”, the “Apparent potency of inhibition at a fixed time point, basolateral versus apical application” value ([1]; T84 monolayers) was “greater when applied basolaterally than apically” and the “Inhibition with basolateral application alone compared with both sides of the monolayer” value ([1]; T84 monolayers) was “almost as effective as incubation on both sides”. For the same molecule, the “Reversibility of inhibition of Cl- secretion” value ([1]; after 60 min recovery in the presence of 0.01 mg/ml bovine serum albumin, n=4) was 96±2%, the “Potentiation of Cl- secretory responses to either agonist at low doses” value ([1]; low doses (=10^-7 or less)) was 5-10% and the “Inhibition of secretory response to agonists of the cAMP signalling cascade” value ([1]; preincubation 33 μM, 5 μM VIP, 10 μM forskolin or 3 mM 8Br-cAMP) was “inhibited”. The “Inhibition of Cl- secretory response to Ca++-dependent agonists” value ([1]; pretreatment 33 μM, carbachol 100 μM, thapsigargin 5 μM or ionomycin 10 μm) was “inhibited strongly”, the “Inhibition of the synergistic secretory response to VIP plus carbachol” value ([1]; same monolayers) was “parallel the inhibition of secretion promoted by Ca^++ agonists alone” and the “Reduction of total amount of 86Rb uptake” value ([3]; VIP, mean±SEM, n=6) was 53.6±15.8%. For the same molecule, the “Effect on bumetanide-sensitive fractional component of 86Rb uptake” value ([3]; bumetanide 10 μM) was “no effect”, the “Bumetanide-sensitive fractional component of 86Rb uptake” value [4] was 88±3.2 % total uptake and the “Effect on forskolin- or thapsigargin-stimulated Cl- conductances” value [5] was “no detectable effect”. For the same molecule, the “Effect on time course of 125I efflux from monolayers treated with VIP” value ([6]; 33 μM clotrimazole) was “little or no effect”, the “Effect of pretreatment on 125I loading of the cells” value [6, 10] was “did not alter” and the “Rate constant for 125I efflux” value ([6]; VIP, 33 μM clotrimazole, not treated 0.0645, n=2 in duplicate) was 0.0637 % uptake/minute. The “Inhibition of time course of forskolin induced Isc” value [7] was “inhibited strongly”, the “Reduction of rate constant for VIP-stimulated 86Rb efflux” value ([8]; 33 µM) was 87% and the “Rate constant for VIP-stimulated 86Rb efflux” value ([8]; 33 μM clotrimazole, untreated 0.0465) was 0.0062 % uptake/minute. For the same molecule, the “Rate constant for thapsigargin-stimulated 86Rb efflux” value ([8]; 33 μM clotrimazole, untreated 0.048, n=2) was 0.011 % uptake/minute, the “Effect of pretreatment on 86Rb loading of the cells” value [8, 10] was “did not alter” and the “Inhibition of baseline and Ca++ stimulated 86RB efflux” value ([8]; T84 cells with VIP or thapsigargin) was “significantly inhibited”. The “Reduction of intestinal fluid secretion induced by cholera toxin” value ([9]; 5 hours) was 86%, the “Effect on intestinal secretion in the absence of cholera toxin” value ([9]; mouse, in vivo) was “no effect” and the “Inhibition of time course of K+ transport after forskolin and carbachol” value [2, 11] was “significantly inhibited”.

In the case of C[C@@H]1[C@H](O)[C@@H](C)/C=C/C=C/C=C/C=C/C=C/C=C/C=C/[C@H](O[C@@H]2O[C@H](C)[C@@H](O)[C@H](N)[C@@H]2O)C[C@@H]2O[C@](O)(C[C@@H](O)C[C@@H](O)[C@H](O)CC[C@@H](O)C[C@@H](O)CC(=O)O[C@H]1C)C[C@H](O)[C@H]2C(=O)O [amphotericin B], the “Increase in conductance on initial permeabilization” value ([2]; amphotericin B apical) is reported as 49±19%.

In the case of Clc1ccc(COC(Cn2ccnc2)c2ccc(Cl)cc2Cl)cc1 (stereo not shown) [econazole], the “Inhibition of cAMP and Ca++ elicited chloride secretion” value ([1]; T84 cells) is reported as “effective at inhibiting chloride secretion”.

In the case of OC(c1ccccc1)(c1ccccc1)c1ccccc1Cl [2-chlorophenyl-bis-phenyl methanol], the “Inhibition of cAMP and Ca++ elicited chloride secretion” value ([1]; T84 cells) is reported as “effective at inhibiting chloride secretion” and the “Inhibition of time course of K+ transport after forskolin and carbachol” value [2, 11] is reported as “Nearly identical results”.

In the case of charybdotoxin, the “Inhibition … to Ca++-dependent agonist carbachol” value [1] is reported as “strongly inhibited”, the “Inhibition … to cAMP mediated agonist VIP” value [1] is reported as “minimal affects” and the “Effect on K+ transport induced by subsequent addition of forskolin” value ([2]; charybdotoxin 100 nM) is reported as “no detectable effect”. For the same molecule, the “Inhibition of carbachol induced Ca++ IK” value ([2]; pretreatment with charybdotoxin 100 nM) was 50%.

In the case of Clc1ccc(COC(Cn2ccnc2)c2ccc(Cl)cc2Cl)c(Cl)c1 (stereo not shown) [miconazole], the “Inhibition of cAMP and Ca++ elicited chloride secretion” value ([1]; T84 cells) is reported as “effective at inhibiting chloride secretion”.

Source: patent publication US6495567B1, “Triaryl methane compounds and their use in the treatment of diarrhea and scours” (Beth Israel Deaconess Medical Center, priority 1996, dated 2002)
